ChEMBL document CHEMBL6134931, “Lysine-Targeted Covalent Strategy Leading to the Discovery of Novel Potent PROTAC-Based PI3Kδ Degraders” (J Med Chem, 2025)

Experiments:
[1] = tested on: MDA-MB-231; assay: Antiproliferative activity against human MDA-MB-231 cells; type: functional, cell-based
[2] = biological target: Protein cereblon/Phosphatidylinositol 4,5-bisphosphate 3-kinase catalytic subunit alpha isoform (Homo sapiens, UniProt P42336+Q96SW2); assay: PROTAC activity at CRBN/p110alpha in human MDA-MB-231 cells assessed as induction of p110alpha degradation; type: cell-based
Sequence of Protein cereblon/Phosphatidylinositol 4,5-bisphosphate 3-kinase catalytic subunit alpha isoform (P42336 whole entry, canonical isoform): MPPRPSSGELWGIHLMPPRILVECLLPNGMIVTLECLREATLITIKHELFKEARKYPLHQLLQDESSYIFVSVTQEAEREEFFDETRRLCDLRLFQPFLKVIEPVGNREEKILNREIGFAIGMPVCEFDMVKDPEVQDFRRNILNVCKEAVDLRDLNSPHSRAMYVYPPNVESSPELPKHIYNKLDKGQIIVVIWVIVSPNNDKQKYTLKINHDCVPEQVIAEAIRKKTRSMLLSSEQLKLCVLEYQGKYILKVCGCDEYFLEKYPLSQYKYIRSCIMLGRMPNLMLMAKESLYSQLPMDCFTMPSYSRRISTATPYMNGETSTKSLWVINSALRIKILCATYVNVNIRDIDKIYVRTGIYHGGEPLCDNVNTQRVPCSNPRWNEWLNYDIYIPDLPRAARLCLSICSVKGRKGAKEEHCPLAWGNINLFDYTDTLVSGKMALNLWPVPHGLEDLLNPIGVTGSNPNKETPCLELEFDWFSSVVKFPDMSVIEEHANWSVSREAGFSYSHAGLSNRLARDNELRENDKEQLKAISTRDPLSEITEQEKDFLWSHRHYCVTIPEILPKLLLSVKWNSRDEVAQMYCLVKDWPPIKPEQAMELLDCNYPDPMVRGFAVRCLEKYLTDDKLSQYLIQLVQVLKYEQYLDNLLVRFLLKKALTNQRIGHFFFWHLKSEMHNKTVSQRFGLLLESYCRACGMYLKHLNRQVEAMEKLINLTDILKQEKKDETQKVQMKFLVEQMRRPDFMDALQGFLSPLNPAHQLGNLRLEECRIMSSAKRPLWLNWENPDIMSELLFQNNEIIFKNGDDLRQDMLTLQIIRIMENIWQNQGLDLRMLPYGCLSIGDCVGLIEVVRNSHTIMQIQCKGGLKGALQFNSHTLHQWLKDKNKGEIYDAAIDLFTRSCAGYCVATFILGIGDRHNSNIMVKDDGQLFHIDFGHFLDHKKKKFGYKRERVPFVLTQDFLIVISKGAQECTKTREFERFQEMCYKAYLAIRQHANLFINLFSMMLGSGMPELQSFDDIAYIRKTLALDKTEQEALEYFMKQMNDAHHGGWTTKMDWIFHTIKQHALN
Sequence of Protein cereblon/Phosphatidylinositol 4,5-bisphosphate 3-kinase catalytic subunit alpha isoform (Q96SW2 whole entry, canonical isoform): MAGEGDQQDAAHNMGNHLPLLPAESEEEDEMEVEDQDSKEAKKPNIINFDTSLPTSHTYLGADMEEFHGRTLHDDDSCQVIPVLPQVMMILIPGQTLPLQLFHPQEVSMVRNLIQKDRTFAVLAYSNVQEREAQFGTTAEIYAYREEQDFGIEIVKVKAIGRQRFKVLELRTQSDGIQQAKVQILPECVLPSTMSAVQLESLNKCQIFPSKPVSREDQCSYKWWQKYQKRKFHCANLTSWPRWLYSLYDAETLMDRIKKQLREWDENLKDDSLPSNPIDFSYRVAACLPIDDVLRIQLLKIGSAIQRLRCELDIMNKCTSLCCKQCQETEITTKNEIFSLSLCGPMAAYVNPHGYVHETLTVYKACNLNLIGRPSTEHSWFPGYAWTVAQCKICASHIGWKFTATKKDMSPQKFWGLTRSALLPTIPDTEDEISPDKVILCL

[3] = biological target: Protein cereblon/Phosphatidylinositol 4,5-bisphosphate 3-kinase catalytic subunit gamma isoform (Homo sapiens, UniProt P48736+Q96SW2); assay: PROTAC activity at CRBN/p110gamma (unknown origin) in Acute myeloid leukemic cell; type: cell-based
Sequence of Protein cereblon/Phosphatidylinositol 4,5-bisphosphate 3-kinase catalytic subunit gamma isoform (P48736 whole entry, canonical isoform): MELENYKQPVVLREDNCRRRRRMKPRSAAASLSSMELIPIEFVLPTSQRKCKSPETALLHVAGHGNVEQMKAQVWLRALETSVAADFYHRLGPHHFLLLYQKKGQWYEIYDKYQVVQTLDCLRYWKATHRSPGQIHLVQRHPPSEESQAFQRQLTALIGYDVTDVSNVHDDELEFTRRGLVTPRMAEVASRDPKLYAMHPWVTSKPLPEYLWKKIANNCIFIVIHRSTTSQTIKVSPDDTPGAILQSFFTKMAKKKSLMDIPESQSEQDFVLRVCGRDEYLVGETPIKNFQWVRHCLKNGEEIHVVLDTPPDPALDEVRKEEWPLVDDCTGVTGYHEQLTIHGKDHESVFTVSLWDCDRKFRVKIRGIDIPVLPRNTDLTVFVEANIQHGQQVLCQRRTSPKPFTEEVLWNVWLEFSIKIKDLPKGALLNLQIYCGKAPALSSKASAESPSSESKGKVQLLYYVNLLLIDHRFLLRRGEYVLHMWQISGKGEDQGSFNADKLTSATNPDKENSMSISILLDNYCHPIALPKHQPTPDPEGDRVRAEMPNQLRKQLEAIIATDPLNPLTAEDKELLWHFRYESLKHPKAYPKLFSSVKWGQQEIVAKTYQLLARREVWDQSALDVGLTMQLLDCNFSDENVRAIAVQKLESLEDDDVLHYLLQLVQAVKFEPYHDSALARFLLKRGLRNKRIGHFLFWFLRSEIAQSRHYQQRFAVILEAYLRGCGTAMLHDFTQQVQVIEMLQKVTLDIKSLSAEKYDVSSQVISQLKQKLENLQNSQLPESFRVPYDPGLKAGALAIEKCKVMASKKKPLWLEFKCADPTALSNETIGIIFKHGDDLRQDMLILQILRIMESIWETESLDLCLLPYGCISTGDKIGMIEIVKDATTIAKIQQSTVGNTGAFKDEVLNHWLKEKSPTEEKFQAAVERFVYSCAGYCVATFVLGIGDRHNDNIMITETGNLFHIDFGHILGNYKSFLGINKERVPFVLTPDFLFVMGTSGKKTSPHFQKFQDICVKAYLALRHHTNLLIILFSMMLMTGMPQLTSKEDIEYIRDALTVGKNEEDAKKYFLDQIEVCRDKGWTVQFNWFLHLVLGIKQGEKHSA
Sequence of Protein cereblon/Phosphatidylinositol 4,5-bisphosphate 3-kinase catalytic subunit gamma isoform (Q96SW2 whole entry, canonical isoform): as the sequence (Q96SW2 whole entry, canonical isoform) above

IC50 [1] [nM] | DC50 [2] [nM] | DC50 [3] [nM] | SMILES
86.8 | 5 |  | COc1c(OCCOCCOCCCCCc2cn(CCCCCNc3cccc4c3C(=O)N(C3CCC(=O)NC3=O)C4=O)nn2)ccc2c1N=C(NC(=O)c1cnc(N)nc1)N1CCN=C21 (stereo not drawn)
 |  | > 100 | Cc1cc(-c2sc(NC(=O)CCCC(=O)NCCCCCCCC(=O)Nc3cccc4c3C(=O)N(C3CCC(=O)NC3=O)C4=O)nc2C)cc2c1C(=O)N([C@H](C)C1CC1)C2 (stereo partly drawn)
